Measurements published in ChEMBL document CHEMBL6127052, “Discovery of membrane-targeting amphiphilic honokiol derivatives containing an oxazolethione moiety to combat methicillin-resistant Staphylococcus aureus (MRSA) infections” (Eur J Med Chem, 2024).
Calls of active or inactive are those of the source.

Columns and labels:
Staphylococcus aureus [1] = assay: Antibacterial activity against methicillin-resistant Staphylococcus aureus clinical isolate M12 infected in KM mouse assessed as decrease in bacterial load in skin tissues at 5 mg/kg, sc measured after 24 hrs by drop-plate counting method (reference value: 6.7); assay type: functional
[2] = Toxicity in KM mouse assessed as degeneration of lung epithelial cells at 20 mg/kg, sc measured after 24 hrs by H and E staining based analysis; assay type: organism-based; conditions: in vivo
[3] = Toxicity in KM mouse infected with methicillin-resistant Staphylococcus aureus clinical isolate M12 assessed as damage in heart at 5 to 10 mg/kg, sc measured after 24 hrs by H and E staining based analysis; assay type: organism-based; conditions: in vivo, dose 5-10 mg/kg
[4] = Toxicity in KM mouse assessed as necrosis in renal tubular epithelial cells at 20 mg/kg, sc measured after 24 hrs by H and E staining based analysis; assay type: organism-based; conditions: in vivo
[5] = Toxicity in KM mouse assessed as intact structure in skin layers at 20 mg/kg, sc measured after 24 hrs by H and E staining based analysis; assay type: organism-based; conditions: in vivo
Staphylococcus aureus [6] = assay: Induction of morphological changes in methicillin-resistant Staphylococcus aureus clinical isolate M12 assessed as rupture of bacterial bodies at 8 times MIC incubated for 4 hrs by SEM analysis; assay type: functional, organism-based
[7] = Toxicity in KM mouse assessed as change in creatinine level at 20 mg/kg, sc measured after 24 hrs; assay type: organism-based; conditions: in vivo
Staphylococcus aureus [8] = assay: Induction of cell membrane damage in methicillin-resistant Staphylococcus aureus clinical isolate M12 assessed as increase in red fluorescence at 8 times MIC incubated for 4 hrs by DAPI/PI staining based analysis; assay type: functional, organism-based
Staphylococcus aureus [9] = assay: Bactericidal activity against methicillin-resistant Staphylococcus aureus clinical isolate M12 assessed as inhibition of bacterial growth at 4 times MIC incubated upto 8 hrs by time-kill assay; assay type: functional, organism-based
[10] = Toxicity in KM mouse assessed as clear skin section at 20 mg/kg, sc measured after 24 hrs by H and E staining based analysis; assay type: organism-based; conditions: in vivo
[11] = Toxicity in KM mouse infected with methicillin-resistant Staphylococcus aureus clinical isolate M12 assessed as damage in spleen at 5 to 10 mg/kg, sc measured after 24 hrs by H and E staining based analysis; assay type: organism-based; conditions: in vivo, dose 5-10 mg/kg
[12] = Toxicity in BALB/c mouse assessed as change in blood routine index at 15 mg/kg, ip bid for 7 days; assay type: organism-based; conditions: in vivo, 168 h, time 7 day
[13] = Toxicity in KM mouse assessed as formation of small erythema at administration site at >40 mg/kg, sc; assay type: organism-based; conditions: in vivo
[14] = Toxicity in KM mouse assessed as degeneration of hepatocytes at 20 mg/kg, sc measured after 24 hrs by H and E staining based analysis; assay type: organism-based; conditions: in vivo
Staphylococcus aureus [15] = assay: Antibacterial activity against methicillin-resistant Staphylococcus aureus clinical isolate M23 by CLSI based micro-broth dilution method; assay type: functional
[16] = Toxicity in BALB/c mouse assessed as animal death at 40 mg/kg, ip bid for 7 days; assay type: organism-based; conditions: in vivo, 168 h, time 7 day
[17] = Toxicity in BALB/c mouse assessed as feeding abnormality at <15 mg/kg, ip bid for 7 days; assay type: organism-based; conditions: in vivo, 168 h, time 7 day
[18] = Toxicity in BALB/c mouse assessed as degeneration of hepatocytes at 15 mg/kg, ip bid for 7 days; assay type: organism-based; conditions: in vivo, 168 h, time 7 day
[19] = Toxicity in KM mouse assessed as change in RBC count at 20 mg/kg, sc measured after 24 hrs; assay type: organism-based; conditions: in vivo
[20] = Toxicity in KM mouse assessed as inflammatory cell infiltration in cardiac muscle fibers at 20 mg/kg, sc measured after 24 hrs by H and E staining based analysis; assay type: organism-based; conditions: in vivo
[21] = Toxicity in KM mouse assessed as change in MCV level at 20 mg/kg, sc measured after 24 hrs; assay type: organism-based; conditions: in vivo
Staphylococcus aureus [22] = assay: Antibacterial activity against methicillin-resistant Staphylococcus aureus clinical isolate M14 by CLSI based micro-broth dilution method; assay type: functional
[23] = Toxicity in KM mouse assessed as edema in lung epithelial cells at 20 mg/kg, sc measured after 24 hrs by H and E staining based analysis; assay type: organism-based; conditions: in vivo
[24] = Toxicity in KM mouse assessed as inflammatory cell infiltration in lung epithelial cells at 20 mg/kg, sc measured after 24 hrs by H and E staining based analysis; assay type: organism-based; conditions: in vivo
[25] = Toxicity in KM mouse infected with methicillin-resistant Staphylococcus aureus clinical isolate M12 assessed as histopathological abnormality in liver at 5 to 10 mg/kg, sc measured after 24 hrs by H and E staining based analysis; assay type: organism-based; conditions: in vivo, dose 5-10 mg/kg
Staphylococcus aureus [26] = assay: Induction of membrane permeability in methicillin-resistant Staphylococcus aureus clinical isolate M12 at 8 to 32 times MIC measured for 15 mins by SYTOX Green dye based analysis; assay type: functional, organism-based
[27] = Toxicity in KM mouse assessed as inflammatory cell infiltration in hepatocytes at 20 mg/kg, sc measured after 24 hrs by H and E staining based analysis; assay type: organism-based; conditions: in vivo
Staphylococcus aureus [28] = assay: Induction of resistance development in Staphylococcus aureus ATCC 29213 at 0.5 times MIC treated for 20 days of consecutive passages; assay type: functional, organism-based; conditions: time 20.0 day
Staphylococcus aureus [29] = assay: Antibacterial activity against methicillin-resistant Staphylococcus aureus clinical isolate M12 infected in sepsis BALB/c mouse model assessed as decrease in bacterial load in spleen at 12 mg/kg, ip administered consecutively at 12 hr-interval for 24 hrs measured after 24 hrs post-last dose; assay type: functional; conditions: time 48 hrs
Staphylococcus aureus [30] = assay: Induction of membrane depolarization in methicillin-resistant Staphylococcus aureus clinical isolate M12 at 8 to 32 times MIC measured every 2 mins for 10 times by DiSC3(5) dye based analysis; assay type: functional, organism-based; conditions: time 20.0 min
[31] = Toxicity in KM mouse infected with methicillin-resistant Staphylococcus aureus clinical isolate M12 assessed as damage in liver at 5 to 10 mg/kg, sc measured after 24 hrs by H and E staining based analysis; assay type: organism-based; conditions: in vivo, dose 5-10 mg/kg
[32] = Toxicity in KM mouse assessed as degeneration in cardiac muscle fibers at 20 mg/kg, sc measured after 24 hrs by H and E staining based analysis; assay type: organism-based; conditions: in vivo
Staphylococcus aureus [33] = assay: Antibacterial activity against methicillin-resistant Staphylococcus aureus clinical isolate M12 infected in sepsis BALB/c mouse model assessed as decrease in deformation of hepatocytes at 6 mg/kg, ip administered consecutively at 12 hr-interval for 24 hrs measured after 24 hrs post-last dose by H and E staining based analysis; assay type: functional, organism-based; conditions: time 48.0 hrs
Staphylococcus aureus [34] = assay: Antibacterial activity against methicillin-resistant Staphylococcus aureus N315 by CLSI based micro-broth dilution method; assay type: functional
[35] = Toxicity in KM mouse assessed as pathological change in kidney at 20 mg/kg, sc measured after 24 hrs by H and E staining based analysis; assay type: organism-based; conditions: in vivo
Staphylococcus aureus [36] = assay: Antibacterial activity against methicillin-resistant Staphylococcus aureus clinical isolate M12 infected in sepsis BALB/c mouse model assessed as decrease in bacterial load in liver at 12 mg/kg, ip administered consecutively at 12 hr-interval for 24 hrs measured after 24 hrs post-last dose; assay type: functional; conditions: time 48 hrs
[37] = Toxicity in KM mouse infected with methicillin-resistant Staphylococcus aureus clinical isolate M12 assessed as damage in kidney at 5 to 10 mg/kg, sc measured after 24 hrs by H and E staining based analysis; assay type: organism-based; conditions: in vivo, dose 5-10 mg/kg
[38] = Selectivity index, ratio of HC50 for hemolytic activity in sheep erythrocytes to MIC for antibacterial activity against Staphylococcus aureus ATCC 29213; assay type: toxicity, cell-based, RBC

C=CCc1cc(-c2ccc(OCCC[N+](C)(C)CC(=O)NCCCC)c(CC=C)c2)c2oc(=S)n(Cc3ccc(F)cc3)c2c1.[Br-]
1.67 log10CFU/g: Activity (Staphylococcus aureus [29])
inactive: Activity (Staphylococcus aureus [28]) | Activity (Staphylococcus aureus [33])
95.1: selectivity ratio [38]
1.62 log10CFU/g: Activity (Staphylococcus aureus [36])
active: Activity (Staphylococcus aureus [6]) | Activity (Staphylococcus aureus [8]) | Activity (Staphylococcus aureus [9]) | Activity (Staphylococcus aureus [26]) | Activity (Staphylococcus aureus [30])
Toxic: Activity [13] | Activity [16]
Non-Toxic: Activity [2] | Activity [3] | Activity [4] | Activity [5] | Activity [7] | Activity [10] | Activity [11] | Activity [12] | Activity [14] | Activity [17] | Activity [18] | Activity [19] | Activity [20] | Activity [21] | Activity [23] | Activity [24] | Activity [25] | Activity [27] | Activity [31] | Activity [32] | Activity [35] | Activity [37]
1.4 log10CFU/g: Activity (Staphylococcus aureus [1])
4 µg/mL: MIC (Staphylococcus aureus [34])
2 µg/mL: MIC (Staphylococcus aureus [15]) | MIC (Staphylococcus aureus [22])
